Experimental data as given in patent US20090156501A1, “IDENTIFICATION OF LIGANDS BY SELECTIVE AMPLIFICATION OF CELLS TRANSFECTED WITH RECEPTORS” (ACADIA PHARMACEUTICALS, INC., priority 1999, published 2009).

Each molecule was assayed against T1, α2-C10 adrenergic receptor (Homo sapiens, UniProt P08913) (assay: Single Receptor Format amplification assay, alpha 2 C10). Settings: Table 3; 8-10 concentrations, 3-4 replicates; read-out: Agonist EC50 nM, α2-C10.
T1 construct: expressed in transfected cells; host or cells: NIH 3T3
T1 sequence (P08913 1-465): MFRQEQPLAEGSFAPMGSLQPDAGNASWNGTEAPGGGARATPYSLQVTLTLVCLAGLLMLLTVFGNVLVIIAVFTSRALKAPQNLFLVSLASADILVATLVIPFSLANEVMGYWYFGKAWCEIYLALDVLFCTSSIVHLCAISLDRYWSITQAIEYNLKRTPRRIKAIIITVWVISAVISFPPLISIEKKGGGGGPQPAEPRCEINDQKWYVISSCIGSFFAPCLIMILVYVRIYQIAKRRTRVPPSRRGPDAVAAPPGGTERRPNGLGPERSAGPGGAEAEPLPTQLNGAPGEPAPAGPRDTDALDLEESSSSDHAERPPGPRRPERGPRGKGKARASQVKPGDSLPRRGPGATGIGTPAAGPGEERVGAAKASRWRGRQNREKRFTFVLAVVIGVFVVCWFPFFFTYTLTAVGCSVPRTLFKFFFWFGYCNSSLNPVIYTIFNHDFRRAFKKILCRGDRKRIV
Format: cell-based

Molecule | EC50 [nM]
CCN1CCc2nc(N)oc2CC1 [BHT 933] | > 10000
C=CCN1CCc2nc(N)sc2CC1 [BHT 920] | > 10000

Same assay, conditions: relative to other ligands at the given receptor

Molecule | Max Response, α2-C10
CCN1CCc2nc(N)oc2CC1 [BHT 933] | ++
C=CCN1CCc2nc(N)sc2CC1 [BHT 920] | +++
Nc1cc(Cl)c(N=C2NCCN2)c(Cl)c1 [p-NH2-Clonidine] | ±
COc1cc2nc(N3CCN(C(=O)c4ccco4)CC3)nc(N)c2cc1OC [Prazocin] | ±
C1COC(NC(C2CC2)C2CC2)=N1 [Rilmenidine] | ±
Cc1cccc([C@H](C)c2cnc[nH]2)c1C [Dexmedetomidine] | ±

What follows are molecules tested against T2, α2-C2 adrenergic receptor (Homo sapiens, UniProt P18089) (assay: Single Receptor Format amplification assay, alpha 2 C2). Settings: not given.
T2 construct: expressed in transfected cells; host or cells: NIH 3T3
T2 sequence (P18089 1-450): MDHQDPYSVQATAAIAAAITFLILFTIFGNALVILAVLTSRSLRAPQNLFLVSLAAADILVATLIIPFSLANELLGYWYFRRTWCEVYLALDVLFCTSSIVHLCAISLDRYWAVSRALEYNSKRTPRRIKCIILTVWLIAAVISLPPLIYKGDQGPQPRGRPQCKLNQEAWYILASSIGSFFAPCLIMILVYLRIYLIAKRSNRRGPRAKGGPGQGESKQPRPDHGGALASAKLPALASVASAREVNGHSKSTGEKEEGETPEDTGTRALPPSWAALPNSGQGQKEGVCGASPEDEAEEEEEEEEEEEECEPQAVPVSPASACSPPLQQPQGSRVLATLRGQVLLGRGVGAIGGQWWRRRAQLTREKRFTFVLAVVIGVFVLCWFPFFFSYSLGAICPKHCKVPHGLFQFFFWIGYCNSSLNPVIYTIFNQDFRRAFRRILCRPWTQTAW
Format: cell-based

Molecule | Max Response, α2-C2
Cc1cccc([C@H](C)c2cnc[nH]2)c1C [Dexmedetomidine] | 2/+++

Same assay, conditions: Table 3; 8-10 concentrations, 3-4 replicates; read-out: Agonist EC50 nM, α2-C2

Molecule | EC50 [nM]
CCN1CCc2nc(N)oc2CC1 [BHT 933] | > 10000
NC[C@H](O)c1ccc(O)c(O)c1 [Norepinephrine] | 7200

Same assay, conditions: relative to other ligands at the given receptor

Molecule | Max Response, α2-C2
CCN1CCc2nc(N)oc2CC1 [BHT 933] | +++
C=CCN1CCc2nc(N)sc2CC1 [BHT 920] | +++
NC[C@H](O)c1ccc(O)c(O)c1 [Norepinephrine] | ++
C1COC(NC(C2CC2)C2CC2)=N1 [Rilmenidine] | ±

What follows are molecules tested against T3, α2-C4 adrenergic receptor (Homo sapiens, UniProt P18825) (assay: Single Receptor Format amplification assay, alpha 2 C4). Settings: Table 3; 8-10 concentrations, 3-4 replicates; read-out: Agonist EC50 nM, α2-C4.
T3 construct: expressed in transfected cells; host or cells: NIH 3T3
T3 sequence (P18825 1-462): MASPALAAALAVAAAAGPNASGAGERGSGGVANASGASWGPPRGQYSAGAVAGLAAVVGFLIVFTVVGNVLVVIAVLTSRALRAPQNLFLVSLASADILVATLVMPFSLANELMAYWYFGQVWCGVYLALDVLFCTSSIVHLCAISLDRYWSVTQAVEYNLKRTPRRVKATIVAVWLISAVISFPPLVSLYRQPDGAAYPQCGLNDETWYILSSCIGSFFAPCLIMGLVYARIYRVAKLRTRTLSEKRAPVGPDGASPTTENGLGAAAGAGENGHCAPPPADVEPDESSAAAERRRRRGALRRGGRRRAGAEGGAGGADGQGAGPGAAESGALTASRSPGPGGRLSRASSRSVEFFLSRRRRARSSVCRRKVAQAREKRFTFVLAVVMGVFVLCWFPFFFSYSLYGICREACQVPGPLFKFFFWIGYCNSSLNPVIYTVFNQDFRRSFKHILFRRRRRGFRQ
Format: cell-based

Molecule | EC50 [nM]
C=CCN1CCc2nc(N)sc2CC1 [BHT 920] | > 10000
NC[C@H](O)c1ccc(O)c(O)c1 [Norepinephrine] | 2
C1COC(NC(C2CC2)C2CC2)=N1 [Rilmenidine] | 480

Same assay, conditions: relative to other ligands at the given receptor

Molecule | Max Response, α2-C4
C=CCN1CCc2nc(N)sc2CC1 [BHT 920] | +++
CC(C)NCC(O)c1ccc(O)c(O)c1 (stereo not shown) [Isoproterenol] | +
N=C(N)NC(=O)Cc1c(Cl)cccc1Cl [Guanfacine] | ±
NC[C@H](O)c1ccc(O)c(O)c1 [Norepinephrine] | +
Nc1cc(Cl)c(N=C2NCCN2)c(Cl)c1 [p-NH2-Clonidine] | ±
Cc1cc(C(C)(C)C)c(O)c(C)c1CC1=NCCN1 [Oxymetazoline] | +
COc1cc2nc(N3CCN(C(=O)c4ccco4)CC3)nc(N)c2cc1OC [Prazocin] | ++
Clc1cccc(Cl)c1N=C1NCCN1 [Clonidine] | ++
C1COC(NC(C2CC2)C2CC2)=N1 [Rilmenidine] | +
Cc1cccc([C@H](C)c2cnc[nH]2)c1C [Dexmedetomidine] | ±

These molecules were tested against T4, 5-HT2A receptor (Homo sapiens, UniProt P28223) (assay: R-SAT functional assay of the 5-HT2A receptor in NIH 3T3 cells (agonism and inverse agonism)). Settings: not given.
T4 construct: expressed in transfected cells; host or cells: NIH 3T3 (mouse fibroblasts), transient transfection, PSI expression vector
Format: cell-based

T4 sequence (P28223 whole entry): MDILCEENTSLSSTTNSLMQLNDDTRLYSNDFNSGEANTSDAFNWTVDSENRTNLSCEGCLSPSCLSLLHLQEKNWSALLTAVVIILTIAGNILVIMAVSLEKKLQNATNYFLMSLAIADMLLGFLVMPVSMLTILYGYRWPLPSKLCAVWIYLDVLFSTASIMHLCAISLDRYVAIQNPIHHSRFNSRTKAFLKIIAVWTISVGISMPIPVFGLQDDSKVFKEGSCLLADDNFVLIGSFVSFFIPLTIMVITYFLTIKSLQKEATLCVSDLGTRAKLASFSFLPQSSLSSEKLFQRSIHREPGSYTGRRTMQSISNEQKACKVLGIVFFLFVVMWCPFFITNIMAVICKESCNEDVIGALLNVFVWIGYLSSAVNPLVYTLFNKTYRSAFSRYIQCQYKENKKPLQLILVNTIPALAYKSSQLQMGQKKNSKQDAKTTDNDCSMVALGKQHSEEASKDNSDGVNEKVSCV

Molecule | % INHIBITION, screen for inverse agonism at 5-HT2A receptors [%]
O=C(CCCN1CCC(O)(c2cccc(C(F)(F)F)c2)CC1)c1ccc(F)cc1 [Triflouperidol] | 96
CSc1ccc2c(c1)C(N1CCN(C)CC1)Cc1ccccc1S2 (stereo not shown) [METHIOTHEPIN] | 79

Same assay, conditions: Table 5; inhibition of constitutive activity; mean of three dose response experiments ± standard error

Molecule | Negative Log EC50, inverse agonists at the 5-HT2A receptor [molar]
OCCN1CCN(CC/C=C2/c3ccccc3Sc3ccc(C(F)(F)F)cc32)CC1 [Cis-Flupentixol] | 8.04 ± 0.10
OCCN1CCN(CC/C=C2\c3ccccc3Sc3ccc(C(F)(F)F)cc32)CC1 [Trans-Flupentixol] | 6.77 ± 0.21

Same assay, conditions: Table 6; inverse agonism; 50 ng per well receptor DNA

Molecule | 5-HT2A Receptor Negative Log EC50
CN1CCN(C2Cc3ccccc3Sc3ccc(Cl)cc32)CC1.O=C(O)/C=C\C(=O)O (stereo not shown) [Octoclothepin] | 9.74 ± 0.98
CN1CCCCC1CCN1c2ccccc2Sc2ccc([S+](C)[O-])cc21 (stereo not shown) [Mesioridazine] | 7.00 ± 0.30
OCCN1CCN(CC/C=C2/c3ccccc3Sc3ccc(C(F)(F)F)cc32)CC1 [Cis-Flupentixol] | 8.04 ± 0.10
OCCN1CCN(CC/C=C2\c3ccccc3Sc3ccc(C(F)(F)F)cc32)CC1 [Trans-Flupentixol] | 6.77 ± 0.21
CCN(CC)CCCN1c2ccccc2Sc2ccc(Cl)cc21 [Chlorproethizene] | 7.70 ± 0.33
CN(C)CCCN1c2ccccc2Sc2cccnc21 [Prothypendyl] | 6.60 ± 0.44

Same assay, conditions: compounds at 300-500 nM; 50 ng/well receptor DNA; […]; mean of duplicates

Molecule | % INHIBITION, screen for inverse agonism at 5-HT2A receptors [%]
CN1CCN(C2Cc3ccccc3Sc3ccc(Cl)cc32)CC1.O=C(O)/C=C\C(=O)O (stereo not shown) [Octoclothepin] | 76
OCCN1CCN(CC/C=C2/c3ccccc3Sc3ccc(C(F)(F)F)cc32)CC1 [Cis-Flupentixol] | 45

Same assay, conditions: compounds at 300-500 nM; 50 ng/well receptor DNA; inhibition from basal, referenced to ritanserin (90-100%); mean of duplicates

Molecule | % INHIBITION, screen for inverse agonism at 5-HT2A receptors [%]
O=C(CCCN1CCC2(CC1)C(=O)NCN2c1ccccc1)c1ccc(F)cc1 [Spiperone] | 82
CN1CCN(C2=Nc3ccccc3Oc3ccc(Cl)cc32)CC1 [Loxapine] | 77
CN(C)CCCSc1ccccc1NC(=O)/C=C/c1ccccc1 [CINANSERIN] | 75
Cc1nc2sccn2c(=O)c1CCN1CCC(=C(c2ccc(F)cc2)c2ccc(F)cc2)CC1 [ritanserin] | 90
Cc1nc2ccccn2c(=O)c1CCN1CCC(C(=O)c2ccc(F)cc2)CC1 [PIRENPIRONE] | 92
N[C@@H](Cc1c[nH]c2ccc(O)cc12)C(=O)O [5-hydroxy-Ltryptophan] | 53
O=C(c1ccc(F)cc1)C1CCN(CCn2c(=O)[nH]c3ccccc3c2=O)CC1 [KETANSERIN] | 82
NCCC1CCCC(CCN)N1 (stereo not shown) [Mdl 26,630 3HCl] | 75
O=C1NCN(c2ccccc2)C12CCN(CCCC(c1ccc(F)cc1)c1ccc(F)cc1)CC2 [Fluspirilene] | 57

Same assay, conditions: receptor signaling relative to baseline (no drug)

Molecule | intrinsic activity at the 5-HT2A receptor (inverse agonism)
Cc1nc2sccn2c(=O)c1CCN1CCC(=C(c2ccc(F)cc2)c2ccc(F)cc2)CC1 [ritanserin] | inverse agonist

Each molecule was assayed against T5, 5-HT2C receptor (Homo sapiens, UniProt P28335) (assay: R-SAT functional assay of the 5-HT2C receptor (inverse agonism)). Settings: Table 6, 50 ng per well receptor DNA.
T5 construct: expressed in transfected cells; PSI mammalian expression vector
T5 sequence (P28335 33-458): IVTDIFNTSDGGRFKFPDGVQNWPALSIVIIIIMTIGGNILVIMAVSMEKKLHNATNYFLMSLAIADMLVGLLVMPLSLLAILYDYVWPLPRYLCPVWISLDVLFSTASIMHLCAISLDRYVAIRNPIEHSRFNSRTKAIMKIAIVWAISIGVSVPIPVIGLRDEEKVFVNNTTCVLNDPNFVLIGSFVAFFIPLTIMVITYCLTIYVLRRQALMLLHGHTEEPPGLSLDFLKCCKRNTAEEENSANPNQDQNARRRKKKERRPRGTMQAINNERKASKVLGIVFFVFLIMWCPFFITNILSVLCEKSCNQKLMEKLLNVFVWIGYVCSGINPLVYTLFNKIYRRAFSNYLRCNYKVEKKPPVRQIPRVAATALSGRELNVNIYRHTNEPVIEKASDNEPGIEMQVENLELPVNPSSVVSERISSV
Format: cell-based

Molecule | 5-HT2C Receptor Negative Log EC50
O=C(CCCN1CCC2(CC1)C(=O)NCN2c1ccccc1)c1ccc(F)cc1 [Spiperone] | No Intrinsic
O=C(CCCN1CCC(O)(c2ccc(Br)cc2)CC1)c1ccc(F)cc1 [Bromperidol] | No Intrinsic
Cc1ccc(C2(O)CCN(CCCC(=O)c3ccc(F)cc3)CC2)cc1 [Moperone] | No Intrinsic
JL-18 | 6.09 ± 0.45
CN1CCCCC1CCN1c2ccccc2Sc2ccc([S+](C)[O-])cc21 (stereo not shown) [Mesioridazine] | No Intrinsic
OCCN1CCN(CC/C=C2/c3ccccc3Sc3ccc(C(F)(F)F)cc32)CC1 [Cis-Flupentixol] | No Intrinsic
CCN1CCCC1CNC(=O)c1cc(S(N)(=O)=O)ccc1OC (stereo not shown) [Sulpiride] | No Intrinsic
CCNC(=O)N1CCN(CCCC(c2ccc(F)cc2)c2ccc(F)cc2)CC1 [Amperozide] | No Intrinsic
OCCN1CCN(CC/C=C2\c3ccccc3Sc3ccc(C(F)(F)F)cc32)CC1 [Trans-Flupentixol] | 5.55 ± 0.37
CC1CCN(CCCC(=O)c2ccc(F)cc2)CC1 [Melperone] | No Intrinsic
CN1CCN(CC/C=C2/c3ccccc3Sc3ccc(S(=O)(=O)N(C)C)cc32)CC1 [Thiothixene] | No Intrinsic
CN(C)CCCN1c2ccccc2Sc2ccccc21 [Promazine] | Agonist
CCN(CC)CCCN1c2ccccc2Sc2ccc(Cl)cc21 [Chlorproethizene] | <5.0
CN(C)CCCN1c2ccccc2Sc2cccnc21 [Prothypendyl] | Agonist
